# In patent publication US8426338B2, “Chelating agents for micronutrient fertilisers” (Adelaide Research and Innovation Pty Ltd, priority 2005, dated 2013):
# How the values were obtained:
# canola roots = assay: Uptake of 65Zn from ice-cold solutions into canola roots (apoplast and symplast); assay type: in vivo; conditions: 30 minutes, FIG. 4
# Procedure: Each treatment was replicated in triplicate. After 30 minutes the canola roots were removed from the uptake solutions and rinsed with MilliQ water. Those roots used to measure symplastic absorption of Zn were transferred to ice-cold desorption solutions for 30 minutes in order to desorb apoplastically bound Zn. Desorption solutions contained 2 mM Na-MES (pH 6.0), 5 mM CaCl2 and 60 μM ZnCl2. Canola plants were separated into roots and shoots, blotted dry and weighed. Roots were transferred into radioactivity counting vials, to which 4 ml of 5M HNO3 was added. Samples were left overnight to solubilise the cell contents before the ^65Zn contents of roots were determined by gamma spectroscopy.
# Canola = assay: Pot experiment: Zn fertiliser uptake by canola on alkaline and calcareous soils; assay type: in vivo, Canola (variety Pinnacle); conditions: 21 days growth, chelate rates PEI 0.043, EDTA 0.37 μM/g soil, FIG. 1
# From the text: A pot experiment was designed to test the availability of Zn to Canola when applied to calcareous and alkaline soils either as ZnSO4.7H2O or chelated with PEI or EDTA.
# Soil samples were collected from field sites known to be Zn responsive at Streaky Bay, South Australia and Birchip, Victoria (Table 1). Topsoils from each location were collected, oven dried and passed through a 2 mm sieve. The ^65Zn labelled experimental fertilisers were mixed with 20 g of soil, which was banded between 100 g of the unfertilised bulk soil. Total nutrient application equated to (μg/g soil) P 60, N 27, applied as TGMAP, and Zn 0.2 as ZnSO4.7H2O. Chelate rates were based on the concentrations required to complex 100% of the Zn in the fertiliser solution. Rates varied depending on the stoichiometry of the Zn-ligand complexes. GEOCHEM was used to predict the degree of chelation in the EDTA fertiliser solution. […]
# Two pre-germinated Canola seeds (variety Pinnacle) were transferred to each pot. […] Plant digests were analysed for ^65Zn by gamma spectroscopy and for total nutrient contents by ICP-OES.
# Data for shoot dry weight, shoot nutrient concentrations and Zn fertiliser uptake were analysed by analysis of variance (ANOVA). Significance between means was determined using the Least Significant Difference (LSD) test.
# Canola seedlings = conditions: 1 μM ZnSO4; 24-hour uptake; FIG. 6, FIG. 7
# Procedure: Canola seedlings (Brassica napus var. Pinnacle) were pre-germinated on filter paper moistened with deionised water. On day 6, the seedlings were transferred to complete nutrient solution and moved into the glasshouse. The nutrient solution contained Ca (3.55 mM), Mg (1.45 mM), NO3^− (8.1 mM), H2PO4^− (0.2 mM), Cl (10 μM), Na (1.1 mM), K (1.2 mM), SO4 (1.45 mM), H3BO3 (30 μM), MoO4^2− (0.2M), FeEDDHA (25 μM), Mn (10 μM), Zn (1 μM), Cu (1 μM), buffered at pH 6.0 with 2 mM MES (2-morpholinoethanesulphonic acid, 50% as potassium salt) (Kupper et al, 2000). After 14 days, the canola plants, three per pot, were transferred to pre-treatment solution for 24 hours. Pre-treatment solution contained 2 mM NaMES (pH 6.0) and 0.5 mM CaCl2. Following pre-treatment, the plants were used in the ^65Zn uptake experiments.
# Pre-treated canola seedlings were transferred to uptake solutions containing 2 mM KMES (pH 6.0), 0.5 mM CaCl2 and 1 μM ZnSO4 as either the metal salt or chelated with EDTA (control) or the eight forms of PEI described above. […]
# After a 24-hour uptake period, canola shoots were harvested, weighed and digested in concentrated HNO3 at 140° C. Digest solutions were transferred to radioactivity counting vials for ^65Zn measurement by gamma spectroscopy. […]
smiles,measurement,setting,value
"O=C(O)CN(CCN(CC(=O)O)CC(=O)O)CC(=O)O [EDTA, ethylenediaminetetraacetic acid]",Uptake of Zn into the root symplast,canola roots; 10 μM ZnCl2 chelated by 10 μM EDTA or 5 μM PEI,not readily absorbed
same,Uptake of Zn into the root apoplast,canola roots; 10 μM ZnCl2 chelated by 10 μM EDTA,not readily absorbed
same,Total Zn uptake by canola,Canola; Birchip Sodosol,ineffective
same,Total Zn uptake by canola,Canola; Streaky Bay calcareous grey sandy loam,ineffective
same,Zn absorption and translocation to canola shoots (Zn transfer coefficient),Canola seedlings,not readily absorbed and translocated to canola shoots
